From the NIST ThermoML archive (doi:10.1016/j.jct.2016.03.029)
Numbers after ± are expanded uncertainties.

Columns and labels:
[1] = xn = mol fraction of the nth substance listed; settings: 100 kPa, Liquid; for mass density: Vibrating tube method; for speed of sound: Frequency=3 MHz, Sing-around technique in a fixed-path interferometer
[2] = refractive index (Na D-line) (dimensionless); xn = mol fraction of the nth substance listed; settings: 100 kPa, Liquid, Standard Abbe refractometry

CCCC[n+]1ccn(C)c1.O=S(=O)([N-]S(=O)(=O)C(F)(F)F)C(F)(F)F + CN1CCCC1=O
Settings | mass density, 318.15 K [kg/m3] | mass density, 323.15 K [kg/m3] | refractive index, 298.15 K | refractive index, 303.15 K | refractive index, 308.15 K | refractive index, 313.15 K | refractive index, 318.15 K | refractive index, 323.15 K | speed of sound, 323.15 K [m/s]
[1], x1 = 0.1051 | 1116.95 ± 1 | 1112.42 ± 1 | – | – | – | – | – | – | 1361.8 ± 1.4
[1], x1 = 0.2088 | 1191.41 ± 1 | 1186.82 ± 1 | – | – | – | – | – | – | 1306.6 ± 1.3
[1], x1 = 0.2926 | 1236.95 ± 1 | 1232.32 ± 1 | – | – | – | – | – | – | 1274.3 ± 1.3
[1], x1 = 0.3807 | 1275.22 ± 1 | 1270.56 ± 1 | – | – | – | – | – | – | 1248.4 ± 1.3
[1], x1 = 0.5019 | 1316.7 ± 1 | 1312.04 ± 1 | – | – | – | – | – | – | 1222.5 ± 1.3
[1], x1 = 0.5925 | 1341.57 ± 1 | 1336.92 ± 1 | – | – | – | – | – | – | 1207.8 ± 1.3
[1], x1 = 0.6982 | 1365.75 ± 1 | 1361.1 ± 1 | – | – | – | – | – | – | 1194.4 ± 1.3
[1], x1 = 0.7862 | 1382.75 ± 1 | 1378.1 ± 1 | – | – | – | – | – | – | 1185.6 ± 1.3
[1], x1 = 0.8895 | 1399.75 ± 1 | 1395.1 ± 1 | – | – | – | – | – | – | 1177.9 ± 1.3
[1], x1 = 1 | 1414.61 ± 1 | 1409.88 ± 1 | – | – | – | – | – | – | 1173.6 ± 1.2
[2], x1 = 0.1051 | – | – | 1.45767 ± 0.00086 | 1.45571 ± 0.00086 | 1.45375 ± 0.00086 | 1.45177 ± 0.00086 | 1.44978 ± 0.00086 | 1.44778 ± 0.00086 | –
[2], x1 = 0.2088 | – | – | 1.45014 ± 0.00086 | 1.4483 ± 0.00086 | 1.44645 ± 0.00086 | 1.44455 ± 0.00086 | 1.44265 ± 0.00086 | 1.4407 ± 0.00086 | –
[2], x1 = 0.2926 | – | – | 1.44539 ± 0.00086 | 1.44359 ± 0.00086 | 1.44178 ± 0.00086 | 1.43994 ± 0.00086 | 1.43809 ± 0.00086 | 1.43621 ± 0.00086 | –
[2], x1 = 0.3807 | – | – | 1.44129 ± 0.00086 | 1.43954 ± 0.00086 | 1.43777 ± 0.00086 | 1.43596 ± 0.00086 | 1.43414 ± 0.00086 | 1.43228 ± 0.00086 | –
[2], x1 = 0.5019 | – | – | 1.4368 ± 0.00086 | 1.4351 ± 0.00086 | 1.43337 ± 0.00086 | 1.43161 ± 0.00086 | 1.42983 ± 0.00086 | 1.42802 ± 0.00086 | –
[2], x1 = 0.5925 | – | – | 1.43414 ± 0.00086 | 1.43244 ± 0.00086 | 1.43074 ± 0.00086 | 1.42904 ± 0.00086 | 1.42733 ± 0.00086 | 1.42562 ± 0.00086 | –
[2], x1 = 0.6982 | – | – | 1.43169 ± 0.00086 | 1.43006 ± 0.00086 | 1.42842 ± 0.00086 | 1.42676 ± 0.00086 | 1.42509 ± 0.00086 | 1.42341 ± 0.00086 | –
[2], x1 = 0.7862 | – | – | 1.42999 ± 0.00086 | 1.42842 ± 0.00086 | 1.42683 ± 0.00086 | 1.42522 ± 0.00086 | 1.42359 ± 0.00086 | 1.42193 ± 0.00086 | –
[2], x1 = 0.8895 | – | – | 1.4283 ± 0.00086 | 1.42678 ± 0.00086 | 1.42524 ± 0.00086 | 1.42368 ± 0.00086 | 1.4221 ± 0.00086 | 1.42051 ± 0.00086 | –
[2], x1 = 1 | – | – | 1.42671 ± 0.00085 | 1.42522 ± 0.00085 | 1.42373 ± 0.00085 | 1.42225 ± 0.00085 | 1.42076 ± 0.00085 | 1.41923 ± 0.00085 | –
